Results taken from the CheMixHub ionic liquid set.
Several values for one entry are separate records, joined by “and”; a condition that tells them apart may be missing. Equal entries are not always repeated.

Assay: xn = mol fraction of the nth substance listed

CC[n+]1ccn(C)c1.O=S(=O)([O-])C(F)(F)F + OCCO
100 kPa
Conditions | electrical conductivity | viscosity [mPa·s]
293.15 K, x1 = 0.001 | – | 20.7
293.15 K, x1 = 0.007 | – | 20.4
293.15 K, x2 = 0.974 | – | 19.6
298.15 K, x1 = 0.001 | 0.0058 S/m and 0.0109 S/m | 16.9
298.15 K, x2 = 0.798 | – | 16.62
303.15 K, x1 = 0.013 | – | 13.4
303.15 K, x2 = 0.0943 | – | 30.94
303.15 K, x2 = 0.2 | – | 23.4
308.15 K, x2 = 0.6019 | – | 13.71
308.15 K, x2 = 0.8964 | – | 11.78
313.15 K, x1 = 0.001 | 0.01 S/m and 0.0188 S/m | 9.53
313.15 K, x2 = 0.408 | – | 13.87
313.15 K, x2 = 0.497 | – | 10.6
313.15 K, x2 = 0.808 | 1.51 S/m | 8
318.15 K, x2 = 0.0943 | – | 19.42
323.15 K, x2 = 0.0943 | – | 16.91
323.15 K, x2 = 0.2021 | – | 13.96
323.15 K, x2 = 0.408 | – | 11.12

CCCCCCCC[n+]1ccc2ccccc2c1.O=S(=O)([N-]S(=O)(=O)C(F)(F)F)C(F)(F)F + OCCc1ccccc1
101 kPa
Conditions | viscosity [mPa·s]
298.15 K, x2 = 0.5766 | 60.64
298.15 K, x2 = 0.8956 | 18.61
308.15 K, x2 = 0.695 | 25
318.15 K, x2 = 0.1985 | 71.5
318.15 K, x2 = 0.3748 | 45.28
318.15 K, x2 = 0.5766 | 23.86
328.15 K, x2 = 0.0851 | 58.53
328.15 K, x2 = 0.3748 | 30.17
328.15 K, x2 = 0.5766 | 16.54
328.15 K, x2 = 0.695 | 11.76
338.15 K, x2 = 0.0851 | 39.05
338.15 K, x2 = 0.3748 | 21.2
338.15 K, x2 = 0.695 | 8.67

Cc1n(S(=O)(=O)O)cc[n+]1S(=O)(=O)O.O=C([O-])C(F)(F)F + CC#N
101 kPa
Conditions | electrical conductivity [S/m]
278.15 K, x1 = 0.02551 | 1.39
283.15 K, x1 = 0.02551 | 1.36
288.15 K, x1 = 0.02551 | 1.3
293.15 K, x1 = 0.02551 | 1.29
298.15 K, x1 = 0.0052 | 0.351
298.15 K, x1 = 0.0104 | 0.528
298.15 K, x1 = 0.0155 | 0.698
298.15 K, x1 = 0.0205 | 1.04
298.15 K, x1 = 0.0255 | 1.26
298.15 K, x1 = 0.02551 | 1.26
303.15 K, x1 = 0.02551 | 1.2
308.15 K, x1 = 0.02551 | 1.15
313.15 K, x1 = 0.02551 | 1.1
318.15 K, x1 = 0.02551 | 1.09
323.15 K, x1 = 0.02551 | 1.08
328.15 K, x1 = 0.02551 | 0.706
333.15 K, x1 = 0.02551 | 0.616

CCCCn1cc[n+](CCOCC[n+]2ccn(CCCC)c2)c1.N#C[N-]C#N.N#C[N-]C#N + CC[n+]1ccn(C)c1.N#C[N-]C#N + O=S(=O)([N-]S(=O)(=O)C(F)(F)F)C(F)(F)F.[Li+]
100 kPa, x1 = 0.2561, x2 = 0.6541
Conditions | electrical conductivity [S/m]
298 K | 0.527
303 K | 0.737
313 K | 0.921
323 K | 1.35
333 K | 1.74
343 K | 2.13

CCCCCCn1cc[n+](CCCCCC)c1.O=S(=O)([N-]S(=O)(=O)C(F)(F)F)C(F)(F)F + O
100 kPa, x2 = 0.1489
Conditions | viscosity [mPa·s]
303.15 K | 65.69
328.15 K | 24.7

CC[n+]1ccn(C)c1.O=S(=O)([O-])C(F)(F)F + CCC(C)O
101 kPa
Conditions | viscosity [mPa·s]
298.15 K, x1 = 0.7986 | 30.77
298.15 K, x1 = 1 | 45.67
303.15 K, x1 = 0.3938 | 6.96
303.15 K, x1 = 0.4988 | 9.31
303.15 K, x1 = 0.5952 | 13.31
303.15 K, x1 = 0.7986 | 26.05
308.15 K, x1 = 0.3938 | 6.16
308.15 K, x1 = 0.903 | 28.15
313.15 K, x1 = 0.1945 | 3.63
313.15 K, x1 = 0.4988 | 7.33
313.15 K, x1 = 0.5952 | 10.28
313.15 K, x1 = 0.6907 | 14.61
313.15 K, x1 = 1 | 27.68
318.15 K, x1 = 0.4988 | 6.57
318.15 K, x1 = 0.903 | 20.96
323.15 K, x1 = 0.6907 | 11.38
323.15 K, x1 = 0.903 | 18.3

CCCCCCCCCC[n+]1ccn(C)c1.O=S(=O)([O-])C(F)(F)C(F)(F)C(F)(F)C(F)(F)F + O
298.15 K, 100 kPa
Conditions | electrical conductivity [S/m]
x1 = 1.66e-06 | 0.00043
x1 = 2.36e-06 | 0.00063
x1 = 3.06e-06 | 0.00086
x1 = 4.11e-06 | 0.00114
x1 = 5.17e-06 | 0.00146
x1 = 5.95e-06 | 0.00163
x1 = 6.65e-06 | 0.00186
x1 = 7.44e-06 | 0.00212
x1 = 8.14e-06 | 0.00237
x1 = 8.76e-06 | 0.00252
x1 = 9.8e-06 | 0.00283
x1 = 1.042e-05 | 0.003
x1 = 1.103e-05 | 0.00323
x1 = 1.164e-05 | 0.00343
x1 = 1.234e-05 | 0.00363
x1 = 1.323e-05 | 0.00389
x1 = 1.384e-05 | 0.00412
x1 = 1.445e-05 | 0.00429
x1 = 1.506e-05 | 0.00446
x1 = 1.586e-05 | 0.00466
x1 = 1.638e-05 | 0.00486
x1 = 1.699e-05 | 0.00506
x1 = 1.779e-05 | 0.00529
x1 = 1.831e-05 | 0.00541
x1 = 1.901e-05 | 0.00569
x1 = 1.971e-05 | 0.00578
x1 = 2.058e-05 | 0.00601
x1 = 2.171e-05 | 0.00621
x1 = 2.26e-05 | 0.00635
x1 = 2.33e-05 | 0.00649
x1 = 2.443e-05 | 0.00669
x1 = 2.512e-05 | 0.00678
x1 = 2.618e-05 | 0.00695
x1 = 2.714e-05 | 0.00703
x1 = 2.793e-05 | 0.0072
x1 = 2.907e-05 | 0.00729
x1 = 3.011e-05 | 0.0074
x1 = 3.116e-05 | 0.00746
x1 = 3.229e-05 | 0.00763
x1 = 3.361e-05 | 0.00777
x1 = 3.526e-05 | 0.00791
x1 = 3.649e-05 | 0.008
x1 = 3.815e-05 | 0.00814
x1 = 3.971e-05 | 0.00825
x1 = 4.103e-05 | 0.00831

CCCCCCCCCCCCCC[P+](CCCCCC)(CCCCCC)CCCCCC.Cc1ncc([N+](=O)[O-])[n-]1 + COCCOCCOCCOCCOC
viscosity [mPa·s], 100 kPa
Conditions | 278.15 K | 283.15 K | 288.15 K | 293.15 K | 298.15 K | 303.15 K | 308.15 K | 313.15 K | 318.15 K | 323.15 K
x2 = 0.151 | 2535 | 1685 | 1140 | 791 | 563 | 411 | 306 | 232 | 179 | 141
x2 = 0.399 | 595 | 425 | 308 | 228 | 173 | 134 | 106 | 85 | 69 | 57

O=C(O)CC(O)C(=O)O (stereo unspecified) + CCCC[N+](CCCC)(CCCC)CCCC.[Cl-] + O
100 kPa, x2 = 0.1428, x1 = 0.1428
Conditions | electrical conductivity [S/m] | viscosity [mPa·s]
293.15 K | 0.0722 | 283
303.15 K | 0.113 | 191
313.15 K | 0.173 | 133
323.15 K | 0.257 | 94
333.15 K | 0.373 | 68.1
